Results reported in US7977061B2, “Ex vivo method for determining potential GLP-2 receptor modulators” (NPS Pharmaceuticals Inc., priority 2005, dated 2011).
Entries after “also recorded” stand apart in the source; their conditions may differ. Like-named read-outs stand apart in the source and are kept apart here.

Biological target: T1, GLP-2R (Rattus norvegicus, UniProt Q9Z0W0)
T1 construct: the described assay enables native GLP-2R characterization by the direct application of GLP-2 to intestinal tissue segments ex vivo; from tissue; host or cells: colon segments of male Sprague-Dawley rats
T1 sequence (Q9Z0W0 1-550): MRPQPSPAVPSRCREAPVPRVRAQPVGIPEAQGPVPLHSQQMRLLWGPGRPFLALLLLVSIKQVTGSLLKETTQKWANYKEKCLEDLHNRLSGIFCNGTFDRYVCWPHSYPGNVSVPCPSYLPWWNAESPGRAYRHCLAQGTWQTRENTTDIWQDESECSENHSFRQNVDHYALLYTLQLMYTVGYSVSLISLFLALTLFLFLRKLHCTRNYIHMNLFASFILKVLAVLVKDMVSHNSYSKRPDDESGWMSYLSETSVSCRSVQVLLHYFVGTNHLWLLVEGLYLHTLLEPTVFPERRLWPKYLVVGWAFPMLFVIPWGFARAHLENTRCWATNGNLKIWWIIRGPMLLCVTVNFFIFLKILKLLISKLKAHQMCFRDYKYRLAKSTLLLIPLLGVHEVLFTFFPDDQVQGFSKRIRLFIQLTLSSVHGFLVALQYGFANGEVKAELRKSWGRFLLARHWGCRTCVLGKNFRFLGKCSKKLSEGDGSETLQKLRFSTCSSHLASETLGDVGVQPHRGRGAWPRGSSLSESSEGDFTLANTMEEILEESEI
Test: Ex vivo organ bath assay of spontaneous contractility of rat colon segments
Conditions: for effect on spontaneous colon contractility: substance alone; for IC50: rat colon segments
Protocol: Segments of colon from male Sprague Dawley rats were suspended in organ bath chambers containing Krebs' solution and maintained at 37° C. with 95% O2 and 5% CO2. Basal tone, contractility rate and peak height were used to measure the properties of spontaneous and ligand-mediated colonic contractions. Segments were initially loaded to a tension of 2 g and allowed to equilibrate for 60 minutes. During this period, segments were repeatedly washed every 10 minutes. [gly2]GLP-2 (“Teduglutide”, a GLP-2 agonist) and GLP-2 analogues were subsequently incubated with each tissue segment for 5 to 10 minutes. The tissues were allowed to re-equilibrate with repeated washes following each experiment.
Male Sprague-Dawley (SD) rats (Charles River Canada, Quebec), weighing 200-250 g, were used for these studies. The animals were housed on contact bedding and kept with free access to food (Purina Rodent Diet) and water in a facility with regulated temperature and humidity, under an alternate 12-hour light/dark cycle. Animals were acclimatized for 3˜5 days prior to harvesting of tissues.
Rats were euthanized by decapitation. The entire intestine was quickly removed and placed in a Petri dish containing a Sylgard layer and 37° C. Krebs' solution bubbled with 95% O2 and 5% CO2. The Krebs' solution (pH 7.4) contained 118.1 mM NaCl, 25 mM NaHCO3, 4.7 mM KCl, 1.2 mM KH2PO4, 1.2 mM MgSO4.7H2O, 2.5 mM CaCl2.2H2O and 11 mM glucose. The colon was isolated, cleaned of superficial fat and mesentery and sectioned into eight 1-cm long segments. The lumen was cleaned by carefully flushing each segment with Krebs' solution using plastic transfer pipets. Segments were transferred to a separate Petri dish containing fresh Krebs' solution and suture threads were tied to both ends of each segment. Tissues were suspended longitudinally using surgical suture, one end attached to the transducer on the top and the other to the tissue holder at the bottom of 20 ml organ bath chambers containing Krebs' solution, maintained at 37° C. with 95% O2 and 5% CO2. Isometric tensions were continuously measured using calibrated force displacement transducers and data was collected and processed by the MP100WSW system with AcqKnowledge software
Segments of colon were initially loaded to a tension of 2 g and allowed to equilibrate for a 60 min period. During this period, segments were washed with Krebs' solution at 10 minutes intervals. When the tissues obtained regular and stable contraction patterns, GLP-2 agonist response experiments were conducted by the addition of eight concentrations of compound into eight separate organ baths for 5-10 minutes. Routinely, one-hour washes were interspersed between repeat applications of compounds to allow for recovery. The effect of GLP-2(3-33) on GLP-2 agonist analogues were conducted by pre-incubating colon segments with 1 or 10 uM GLP-2(3-33) for 5-10 minutes. Then agonist responses were measured at various concentrations as described above.
Tension was measured by changes in peak height. Data were calculated and expressed as percentage response relative to the basal level (prior to the experiment). Graphs and IC50 determinations were plotted by the percentage response in GraphPad Prism (v 3.02). In order to assess the significance of the effect of GLP-2 and Teduglutide paired t-tests were conducted on the Log [IC50] values.

Row | IC50 (agonist alone, read-out: estimated IC50, inhibition of colon contractility) | IC50 (pre-incubated with 1 μM GLP-2(3-33), read-out: estimated IC50, inhibition of colon contractility in the presence of GLP-2(3-33)) | IC50 (pre-incubated with 10 μM GLP-2(3-33), read-out: estimated IC50, inhibition of colon contractility in the presence of GLP-2(3-33)) | Molecule | effect on spontaneous colon contractility (rat colon) | effect on GLP-2(1-33)-induced inhibition of colon contractility (rat colon, 1 μM and 10 μM test substance, agonist GLP-2(1-33)) | effect on teduglutide-induced inhibition of rat colon contractility (rat colon, 1 μM and 10 μM test substance, agonist teduglutide)
1 | – | – | – | CC[C@H](C)[C@H](NC(=O)[C@H](Cc1ccccc1)NC(=O)[C@H](CC(=O)O)NC(=O)[C@H](CCCNC(=N)N)NC(=O)[C@H](C)NC(=O)[C@H](C)NC(=O)[C@H](CC(C)C)NC(=O)[C@H](CC(N)=O)NC(=O)[C@H](CC(=O)O)NC(=O)[C@H](CC(C)C)NC(=O)[C@@H](NC(=O)[C@@H](NC(=O)[C@H](CC(N)=O)NC(=O)[C@H](CCSC)NC(=O)[C@H](CCC(=O)O)NC(=O)[C@H](CC(=O)O)NC(=O)[C@H](CO)NC(=O)[C@H](Cc1ccccc1)NC(=O)[C@H](CO)NC(=O)CNC(=O)[C@H](CC(=O)O)NC(=O)[C@H](C)NC(=O)[C@@H](N)Cc1c[nH]cn1)[C@@H](C)O)[C@@H](C)CC)C(=O)N[C@@H](CC(N)=O)C(=O)N[C@@H](Cc1c[nH]c2ccccc12)C(=O)N[C@@H](CC(C)C)C(=O)N[C@H](C(=O)N[C@@H](CCC(N)=O)C(=O)N[C@H](C(=O)N[C@@H](CCCCN)C(=O)N[C@H](C(=O)N[C@H](C(=O)N[C@@H](CC(=O)O)C(=O)O)[C@@H](C)O)[C@@H](C)CC)[C@@H](C)O)[C@@H](C)CC [GLP-2(1-33)] | inhibits spontaneous colon contractility in a concentration-dependent manner | – | –
2 | 4.9 ± 1.9 nM | 34.7 ± 15.1 nM | 59.9 ± 11.9 nM | CC[C@H](C)[C@H](NC(=O)[C@H](Cc1ccccc1)NC(=O)[C@H](CC(=O)O)NC(=O)[C@H](CCCNC(=N)N)NC(=O)[C@H](C)NC(=O)[C@H](C)NC(=O)[C@H](CC(C)C)NC(=O)[C@H](CC(N)=O)NC(=O)[C@H](CC(=O)O)NC(=O)[C@H](CC(C)C)NC(=O)[C@@H](NC(=O)[C@@H](NC(=O)[C@H](CC(N)=O)NC(=O)[C@H](CCSC)NC(=O)[C@H](CCC(=O)O)NC(=O)[C@H](CC(=O)O)NC(=O)[C@H](CO)NC(=O)[C@H](Cc1ccccc1)NC(=O)[C@H](CO)NC(=O)CNC(=O)[C@H](CC(=O)O)NC(=O)CNC(=O)[C@@H](N)Cc1c[nH]cn1)[C@@H](C)O)[C@@H](C)CC)C(=O)N[C@@H](CC(N)=O)C(=O)N[C@@H](Cc1c[nH]c2ccccc12)C(=O)N[C@@H](CC(C)C)C(=O)N[C@H](C(=O)N[C@@H](CCC(N)=O)C(=O)N[C@H](C(=O)N[C@@H](CCCCN)C(=O)N[C@H](C(=O)N[C@H](C(=O)N[C@@H](CC(=O)O)C(=O)O)[C@@H](C)O)[C@@H](C)CC)[C@@H](C)O)[C@@H](C)CC [Teduglutide, [gly2]GLP-2] | inhibited spontaneous colon contractility in a concentration-dependent manner | – | –
3 | – | – | – | GLP-2(3-33) (DGSFSDEMNTILDNLAARDFINWLIQTKITD; Glucagon-like peptide 2; UniProt P01275 148-178, looked up, fragment) [a GLP-2 antagonist/partial agonist] | no effect alone | blocked GLP-2(1-33)-induced inhibition of colon contractility; also recorded: blocked the inhibitory effects; also recorded: blocks the effect of GLP-2(1-33) in a concentration-dependent manner | blocked teduglutide-induced inhibition of colon contractility; also recorded: blocked the inhibitory effects
